Melting point data for 30 compounds are collected here from patent publication US7598382B2, “Aryl substituted imidazoquinolines” (Coley Pharmaceutical Group, Inc., priority 2002, dated 2009).

The structures appear in SMILES notation. Structures can show the parent of a compound that is named as a salt. Some results are limits rather than exact numbers.

As to `CCCc1nc2c(N)nc3cc(-c4cccnc4)ccc3c2n1CC1CCN(S(C)(=O)=O)CC1` (as salt: HCl) (hydrate or solvate) [Example 411, 1-{[1-(Methanesulfonyl)piperidin-4-yl]methyl}-2-propyl-7-(pyridin-3-yl)-1H-imidazo[4,5-c]quinolin-4-amine], the melting point – broadly, the temperature, or range, at which the solid turns liquid – is greater than 250 °C.

Consider `CCOCc1nc2c(N)nc3cc(-c4cccc(C(=O)N5CCCC5)c4)ccc3c2n1CCCOC` (as salt: HCl) [Example 175, {3-[4-Amino-2-ethoxymethyl-1-(3-methoxypropyl)-1H-imidazo[4,5-c]quinolin-7-yl]phenyl}pyrrolidin-1-ylmethanone], for which the melting point is 145 to 146 °C. Under `CCOCc1nc2c(N)nc3cc(-c4cccnc4)ccc3c2n1CC1CCN(S(C)(=O)=O)CC1` (as salt: HCl) [Example 178, 2-Ethoxymethyl-1-{[1-(methanesulfonyl)piperidin-4-yl]methyl}-7-(pyridin-3-yl)-1H-imidazo[4,5-c]quinolin-4-amine] stands 254 to 255 °C.

Turning to `CCCc1nc2c(N)nc3cc(CCc4ccc5sc(C)nc5c4)ccc3c2n1CC(C)C` (as salt: HCl) [Example 457, 7-[2-(2-Methylbenzothiazol-5-yl)ethyl]-1-(2-methylpropyl)-2-propyl-1H-imidazo[4,5-c]quinolin-4-amine], the melting point was greater than 250 °C.

As for `CCCc1nc2c(N)nc3cc(CCc4ccc(OC)cc4)ccc3c2n1CC(C)C` (as salt: HCl) [Example 459, 7-[2-(4-Methoxyphenyl)ethyl]-1-(2-methylpropyl)-2-propyl-1H-imidazo[4,5-c]quinolin-4-amine], the melting point is greater than 250 °C. To `CCCc1nc2c(N)nc3cc(CCc4ccccc4OC)ccc3c2n1CC(C)C` (as salt: HCl) [Example 460, 7-[2-(2-Methoxyphenyl)ethyl]-1-(2-methylpropyl)-2-propyl-1H-imidazo[4,5-c]quinolin-4-amine] belongs greater than 250 °C; to `CCOCc1nc2c(N)nc3cc(-c4cccnc4)ccc3c2n1CC1CCNCC1` (as salt: hydrochloride) [Example 177, 2-Ethoxymethyl-1-(piperidin-4-ylmethyl)-7-(pyridin-3-yl)-1H-imidazo[4,5-c]quinolin-4-amine trihydrochloride], greater than 250 °C; to `CCc1nc2c(N)nc3cc(-c4cccnc4)ccc3c2n1CC1CCNCC1` (as salt: hydrochloride) [Example 405, 2-Ethyl-1-(piperidin-4-ylmethyl)-7-(pyridin-3-yl)-1H-imidazo[4,5-c]quinolin-4-amine trihydrochloride], greater than 250 °C.

In turn, `CCCc1nc2c(N)nc3cc(-c4cccnc4)ccc3c2n1CC1CCNCC1` (as salt: hydrochloride) [Example 410, 1-(Piperidin-4-ylmethyl)-2-propyl-7-(pyridin-3-yl)-1H-imidazo[4,5-c]quinolin-4-amine trihydrochloride] showed a melting point greater than 250 °C. Under `CCOCc1nc2c(N)nc3cc(-c4cccnc4)ccc3c2n1CC1CCCCN1` (stereo not drawn) (as salt: hydrochloride) [Example 491, 2-Ethoxymethyl-1-(piperidin-2-ylmethyl)-7-(pyridin-3-yl)-1H-imidazo[4,5-c]quinolin-4-amine trihydrochloride] stands greater than 250 °C; under `CCOCc1nc2c(N)nc3cc(-c4cccnc4)ccc3c2n1CC1CCN(C(=O)C(C)C)CC1` (hydrate or solvate) [Example 179, 2-Ethoxymethyl-1-[(1-isobutyrylpiperidin-4-yl)methyl]-7-(pyridin-3-yl)-1H-imidazo[4,5-c]quinolin-4-amine], 130 to 132 °C. `CCOCc1nc2c(N)nc3cc(-c4cccnc4)ccc3c2n1CC1CCN(C(=O)N2CCOCC2)CC1` (hydrate or solvate) [Example 180, 2-Ethoxymethyl-1-{[1-(morpholin-4-ylcarbonyl)piperidin-4-yl]methyl}-7-(pyridin-3-yl)-1H-imidazo[4,5-c]quinolin-4-amine] registered a melting point of 224 to 225 °C.

As to `CCCCCCCCCCCCCCCC(=O)N1CCC(Cn2c(COCC)nc3c(N)nc4cc(-c5cccnc5)ccc4c32)CC1` (hydrate or solvate) [Example 181, 2-Ethoxymethyl-1-[(1-palmitoylpiperidin-4-yl)methyl]-7-(pyridin-3-yl)-1H-imidazo[4,5-c]quinolin-4-amine], the melting point was 72 to 75 °C.

The compound `COCCc1nc2c(N)nc3cc(-c4cccc(CO)c4)ccc3c2n1CCCN1CCCC1=O` (hydrate or solvate) [Example 185, 1-{3-[4-Amino-7-(3-hydroxymethylphenyl)-2-(2-methoxyethyl)-1H-imidazo[4,5-c]quinolin-1-yl]propyl}pyrrolidin-2-one] came in with a melting point of 184 to 187 °C. To `COCCc1nc2c(N)nc3ccc(-c4ccccc4)cc3c2n1CCCN1CCCC1=O` (hydrate or solvate) [Example 187, 1-{3-[4-Amino-2-(2-methoxyethyl)-8-phenyl-1H-imidazo[4,5-c]quinolin-1-yl]propyl}pyrrolidin-2-one] belongs 207 to 210 °C.

Consider `COCCc1nc2c(N)nc3ccc(-c4cccc(C(C)=O)c4)cc3c2n1CCCN1CCCC1=O` (hydrate or solvate) [Example 189, 1-{3-[8-(3-Acetylphenyl)-4-amino-2-(2-methoxyethyl)-1H-imidazo[4,5-c]quinolin-1-yl]propyl}pyrrolidin-2-one], for which the melting point fell in the range of 164 to 167 °C. Under `CCOCc1nc2c(N)nc3cc(-c4ccccc4)ccc3c2n1CC1CCN(C(=O)C(C)C)CC1` (hydrate or solvate) [Example 194, 2-Ethoxymethyl-1-[(1-isobutyrylpiperidin-4-yl)methyl]-7-phenyl-1H-imidazo[4,5-c]quinolin-4-amine] stands 156 to 158 °C. To `CCOCc1nc2c(N)nc3cc(-c4cccnc4)ccc3c2n1CCCCNC(=O)C1CCCC1` (hydrate or solvate) [Example 374, N-{4-[4-Amino-2-ethoxymethyl-7-(pyridin-3-yl)-1H-imidazo[4,5-c]quinolin-1-yl]butyl}cyclopentanecarboxamide] belongs 196 to 198 °C; to `CCOCc1nc2c(N)nc3cc(-c4cccnc4)ccc3c2n1CCCCNS(C)(=O)=O` (hydrate or solvate) [Example 375, N-{4-[4-Amino-2-ethoxymethyl-7-(pyridin-3-yl)-1H-imidazo[4,5-c]quinolin-1-yl]butyl}methanesulfonamide], 186 to 188 °C. To `CCCC(=O)NCCCCn1c(CCC)nc2c(N)nc3cc(-c4cccnc4)ccc3c21` (hydrate or solvate) [Example 380, N-{4-[4-Amino-2-propyl-7-(pyridin-3-yl)-1H-imidazo[4,5-c]quinolin-1-yl]butyl}butyramide] belongs 144 to 146 °C; to `CCCc1nc2c(N)nc3cc(-c4cccnc4)ccc3c2n1CCCCNC(=O)C(C)C` (hydrate or solvate) [Example 381, N-{4-[4-Amino-2-propyl-7-(pyridin-3-yl)-1H-imidazo[4,5-c]quinolin-1-yl]butyl}-2-methylpropanamide], 168 to 170 °C. Compound `CCCc1nc2c(N)nc3cc(-c4cccnc4)ccc3c2n1CCCCNC(=O)C1CCCC1` (hydrate or solvate) [Example 382, N-{4-[4-Amino-2-propyl-7-(pyridin-3-yl)-1H-imidazo[4,5-c]quinolin-1-yl]butyl}cyclopentanecarboxamide] yielded a melting point of 180 to 182 °C. `CCCNC(=O)NCCCCn1c(CCC)nc2c(N)nc3cc(-c4cccnc4)ccc3c21` (hydrate or solvate) [Example 384] displayed a melting point of 184 to 185 °C. To `CCCc1nc2c(N)nc3cc(-c4cccnc4)ccc3c2n1CCCCNC(=O)NC(C)C` (hydrate or solvate) [Example 385] belongs 173 to 175 °C; to `COCc1nc2c(N)nc3cc(-c4cccc(C(=O)N5CCOCC5)c4)ccc3c2n1CC(C)(C)O` (hydrate or solvate) [Example 401, {3-[4-Amino-1-(2-hydroxy-2-methylpropyl)-2-methoxymethyl-1H-imidazo[4,5-c]quinolin-7-yl]phenyl}morpholin-4-ylmethanone], 176 to 177 °C.

Turning to `COCc1nc2c(N)nc3cc(-c4cncc(CO)c4)ccc3c2n1CC(C)(C)O` (hydrate or solvate) [Example 402, 1-[4-Amino-7-(5-hydroxymethylpyridin-3-yl)-2-methoxymethyl-1H-imidazo[4,5-c]quinolin-1-yl]-2-methylpropan-2-ol], the melting point fell in the range of 224 to 225 °C. To `CCc1nc2c(N)nc3cc(-c4cccnc4)ccc3c2n1CC1CCN(S(C)(=O)=O)CC1` (hydrate or solvate) [Example 406, 2-Ethyl-1-{[1-(methanesulfonyl)piperidin-4-yl]methyl}-7-(pyridin-3-yl)-1H-imidazo[4,5-c]quinolin-4-amine] belongs 228 to 229 °C; to `CCc1nc2c(N)nc3cc(-c4cccnc4)ccc3c2n1CC1CCN(C(=O)C(C)C)CC1` (hydrate or solvate) [Example 407, 1-{4-[4-Amino-2-ethyl-7-(pyridin-3-yl)-1H-imidazo[4,5-c]quinolin-1-ylmethyl]piperidin-1-yl}-2-methylpropan-1-one], 189 to 191 °C.

On to `CCc1nc2c(N)nc3cc(-c4cccnc4)ccc3c2n1CC1CCN(C(=O)NC(C)C)CC1` (hydrate or solvate) [Example 408, 4-[4-Amino-2-ethyl-7-(pyridin-3-yl)-1H-imidazo[4,5-c]quinolin-1-ylmethyl]piperidin-1-carboxylic acid isopropylamide], for which the melting point was 255 to 256 °C.

In turn, `CCOCc1nc2c(N)nc3cc(-c4cccnc4)ccc3c2n1CCN1CCN(S(C)(=O)=O)CC1` (hydrate or solvate) [Example 415, 2-Ethoxymethyl-1-{2-[4-(methanesulfonyl)piperazin-1-yl]ethyl}-7-(pyridin-3-yl)-1H-imidazo[4,5-c]quinolin-4-amine] had a melting point of 205 to 207 °C.
